Data published in US6589942B1, “Chitosan metal complexes and method for controlling microbial growth on plants using same” (priority 1998, dated 2003).

Key:
Assay type in all cases: in vivo
[1] = tested on: cucumber plants; experiment: toxicity to cucumber plants (Example 3)
[2] = tested on: cucumber plants; experiment: toxicity to cucumber plants (Example 5)
Excerpt: Controlling the Gray mold disease caused by Botrytis cinerea in cucumber plants utilizing 0.1% chitosan and metal complexes.

[3] = tested on: potato leaves; experiment: toxicity to potato leaves (Example 2)

Measured: toxicity to the plant

O=[N+]([O-])[O-].O=[N+]([O-])[O-].[Cu+2] [CuNO3]
toxic: [1]; 25 ppm metals | [1]; 50 ppm metals | [1]; 75 ppm metals | [2]; 35 ppm metals | [2]; 50 ppm metals | [3]; 25 ppm metals | [3]; 50 ppm metals | [3]; 75 ppm metals
